Measurements published in the supplement of paper PMC11208160.

Test: recombinant barcode read abundance after kanamycin selection (control-corrected) (log10(CPM+1)); higher = more efficient recombination; sequences stand for … in AGTGCAGAGAAAATCGGCCAGTTTTCTCTGCCTGCAGTCCGCATGCCGT…ATTTATGCAGCGGACTGCCTTTCTCCCAAAGTGATAAACCGGACAGTATCATGGACCGGTTTTCCCGGTAATCCGTATTTGCAAGGTTGGTTTCACT; site = the 11-nt target
Procedure: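 Same pooled E. coli target screen (IS621 bridge recombinase, kanamycin selection, control-corrected CPM, mean of 2 biological replicates). Here the two core-binding nucleotides of the LTG and RTG of the bridge RNA target-binding loop are mutated. Target and donor CT cores are held constant, and the other 9 guide positions match the target. The target is read from the library oligo sequence. Molecule = full bridge RNA written as DNA: nt 1-80 from the library oligo, rest WT scaffold.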
With “AGGAGGTCTTGGGTTCTAACCTGTTGCCTTG [AGGAGGTCTAG_LTGcore_CT_RTGcore_CA] (site AGGAGGTCTAG) (LTG core: CT, RTG core: CA)” the “recombinant barcode read abundance (log10)” value was 0.336.
For “AGGAGGTGATGGGTTCTAACCTGTTGCCTTC [AGGAGGTCTAG_LTGcore_GA_RTGcore_GA] (site AGGAGGTCTAG) (LTG core: GA, RTG core: GA)”, the “recombinant barcode read abundance (log10)” value was 0.218.
With “AGGAGGTGGTGGGTTCTAACCTGTTGCCTCC [AGGAGGTCTAG_LTGcore_GG_RTGcore_GG] (site AGGAGGTCTAG) (LTG core: GG, RTG core: GG)” the “recombinant barcode read abundance (log10)” value was 0.0671.
With “AGGAGGTGTTGGGTTCTAACCTGTTGCCTAC [AGGAGGTCTAG_LTGcore_GT_RTGcore_GT] (site AGGAGGTCTAG) (LTG core: GT, RTG core: GT)” the “recombinant barcode read abundance (log10)” value was 0.0506.
For “AGGAGGTTGTGGGTTCTAACCTGTTGCCTAG [AGGAGGTCTAG_LTGcore_TG_RTGcore_CT] (site AGGAGGTCTAG) (LTG core: TG, RTG core: CT)”, the “recombinant barcode read abundance (log10)” value was 0.42.
For “AGGAGGTTGTGGGTTCTAACCTGTTGCCTCA [AGGAGGTCTAG_LTGcore_TG_RTGcore_TG] (site AGGAGGTCTAG) (LTG core: TG, RTG core: TG)”, the “recombinant barcode read abundance (log10)” value was 0.0756.
In the case of “AGGCCTCACTGGGTTCTAACCTGTTGCCTGT [AGGCCTCCTAG_LTGcore_AC_RTGcore_AC] (site AGGCCTCCTAG) (LTG core: AC, RTG core: AC)”, the “recombinant barcode read abundance (log10)” value was 0.113.
With “AGGCCTCAGTGGGTTCTAACCTGTTGCCTAG [AGGCCTCCTAG_LTGcore_AG_RTGcore_CT] (site AGGCCTCCTAG) (LTG core: AG, RTG core: CT)” the “recombinant barcode read abundance (log10)” value was 0.0227.
With “AGGCCTCATTGGGTTCTAACCTGTTGCCTAG [AGGCCTCCTAG_LTGcore_AT_RTGcore_CT] (site AGGCCTCCTAG) (LTG core: AT, RTG core: CT)” the “recombinant barcode read abundance (log10)” value was 0.254.
With “AGGCCTCCCTGGGTTCTAACCTGTTGCCTGG [AGGCCTCCTAG_LTGcore_CC_RTGcore_CC] (site AGGCCTCCTAG) (LTG core: CC, RTG core: CC)” the “recombinant barcode read abundance (log10)” value was 0.146.
With “AGGCCTCCTTGGGTTCTAACCTGTTGCCTAA [AGGCCTCCTAG_LTGcore_CT_RTGcore_TT] (site AGGCCTCCTAG) (LTG core: CT, RTG core: TT)” the “recombinant barcode read abundance (log10)” value was 0.109.
With “AGGCCTCCTTGGGTTCTAACCTGTTGCCTAC [AGGCCTCCTAG_LTGcore_CT_RTGcore_GT] (site AGGCCTCCTAG) (LTG core: CT, RTG core: GT)” the “recombinant barcode read abundance (log10)” value was 1.06.
With “AGGCCTCCTTGGGTTCTAACCTGTTGCCTCC [AGGCCTCCTAG_LTGcore_CT_RTGcore_GG] (site AGGCCTCCTAG) (LTG core: CT, RTG core: GG)” the “recombinant barcode read abundance (log10)” value was 0.102.
In the case of “AGGCCTCCTTGGGTTCTAACCTGTTGCCTGA [AGGCCTCCTAG_LTGcore_CT_RTGcore_TC] (site AGGCCTCCTAG) (LTG core: CT, RTG core: TC)”, the “recombinant barcode read abundance (log10)” value was 0.578.
In the case of “AGGCCTCCTTGGGTTCTAACCTGTTGCCTGT [AGGCCTCCTAG_LTGcore_CT_RTGcore_AC] (site AGGCCTCCTAG) (LTG core: CT, RTG core: AC)”, the “recombinant barcode read abundance (log10)” value was 0.0115.
In the case of “AGGCCTCGATGGGTTCTAACCTGTTGCCTTC [AGGCCTCCTAG_LTGcore_GA_RTGcore_GA] (site AGGCCTCCTAG) (LTG core: GA, RTG core: GA)”, the “recombinant barcode read abundance (log10)” value was 0.206.
With “AGGCCTCGTTGGGTTCTAACCTGTTGCCTAC [AGGCCTCCTAG_LTGcore_GT_RTGcore_GT] (site AGGCCTCCTAG) (LTG core: GT, RTG core: GT)” the “recombinant barcode read abundance (log10)” value was 0.0637.
For “AGGCGGGAATGGGTTCTAACCTGTTGCGGAG [AGGCGGGCTCC_LTGcore_AA_RTGcore_CT] (site AGGCGGGCTCC) (LTG core: AA, RTG core: CT)”, the “recombinant barcode read abundance (log10)” value was 0.668.
With “AGGCGGGAGTGGGTTCTAACCTGTTGCGGAG [AGGCGGGCTCC_LTGcore_AG_RTGcore_CT] (site AGGCGGGCTCC) (LTG core: AG, RTG core: CT)” the “recombinant barcode read abundance (log10)” value was 0.325.
With “AGGCGGGCTTGGGTTCTAACCTGTTGCGGCC [AGGCGGGCTCC_LTGcore_CT_RTGcore_GG] (site AGGCGGGCTCC) (LTG core: CT, RTG core: GG)” the “recombinant barcode read abundance (log10)” value was 0.367.
In the case of “AGGCGGGCTTGGGTTCTAACCTGTTGCGGGC [AGGCGGGCTCC_LTGcore_CT_RTGcore_GC] (site AGGCGGGCTCC) (LTG core: CT, RTG core: GC)”, the “recombinant barcode read abundance (log10)” value was 0.249.
In the case of “AGGCGGGCTTGGGTTCTAACCTGTTGCGGGT [AGGCGGGCTCC_LTGcore_CT_RTGcore_AC] (site AGGCGGGCTCC) (LTG core: CT, RTG core: AC)”, the “recombinant barcode read abundance (log10)” value was 0.945.
With “AGGCGGGCTTGGGTTCTAACCTGTTGCGGTT [AGGCGGGCTCC_LTGcore_CT_RTGcore_AA] (site AGGCGGGCTCC) (LTG core: CT, RTG core: AA)” the “recombinant barcode read abundance (log10)” value was 0.0746.
In the case of “AGGCGGGGCTGGGTTCTAACCTGTTGCGGAG [AGGCGGGCTCC_LTGcore_GC_RTGcore_CT] (site AGGCGGGCTCC) (LTG core: GC, RTG core: CT)”, the “recombinant barcode read abundance (log10)” value was 0.207.
In the case of “AGGCGGGGTTGGGTTCTAACCTGTTGCGGAC [AGGCGGGCTCC_LTGcore_GT_RTGcore_GT] (site AGGCGGGCTCC) (LTG core: GT, RTG core: GT)”, the “recombinant barcode read abundance (log10)” value was 0.0704.
With “AGGCGGGTCTGGGTTCTAACCTGTTGCGGGA [AGGCGGGCTCC_LTGcore_TC_RTGcore_TC] (site AGGCGGGCTCC) (LTG core: TC, RTG core: TC)” the “recombinant barcode read abundance (log10)” value was 0.156.
With “AGGCGGTATTGGGTTCTAACCTGTTGCTTAG [AGGCGGTCTAA_LTGcore_AT_RTGcore_CT] (site AGGCGGTCTAA) (LTG core: AT, RTG core: CT)” the “recombinant barcode read abundance (log10)” value was 0.127.
In the case of “AGGCGGTCATGGGTTCTAACCTGTTGCTTTG [AGGCGGTCTAA_LTGcore_CA_RTGcore_CA] (site AGGCGGTCTAA) (LTG core: CA, RTG core: CA)”, the “recombinant barcode read abundance (log10)” value was 0.128.
In the case of “AGGCGGTCTTGGGTTCTAACCTGTTGCTTAC [AGGCGGTCTAA_LTGcore_CT_RTGcore_GT] (site AGGCGGTCTAA) (LTG core: CT, RTG core: GT)”, the “recombinant barcode read abundance (log10)” value was 1.26.
With “AGGCGGTTTTGGGTTCTAACCTGTTGCTTAA [AGGCGGTCTAA_LTGcore_TT_RTGcore_TT] (site AGGCGGTCTAA) (LTG core: TT, RTG core: TT)” the “recombinant barcode read abundance (log10)” value was 0.0993.
With “AGTCTTAATTGGGTTCTAACCTGTTGCCAAG [AGTCTTACTTG_LTGcore_AT_RTGcore_CT] (site AGTCTTACTTG) (LTG core: AT, RTG core: CT)” the “recombinant barcode read abundance (log10)” value was 0.295.
With “AGTCTTACATGGGTTCTAACCTGTTGCCAAG [AGTCTTACTTG_LTGcore_CA_RTGcore_CT] (site AGTCTTACTTG) (LTG core: CA, RTG core: CT)” the “recombinant barcode read abundance (log10)” value was 0.033.
With “AGTCTTACGTGGGTTCTAACCTGTTGCCAAG [AGTCTTACTTG_LTGcore_CG_RTGcore_CT] (site AGTCTTACTTG) (LTG core: CG, RTG core: CT)” the “recombinant barcode read abundance (log10)” value was 0.0383.
With “AGTCTTACTTGGGTTCTAACCTGTTGCCAAA [AGTCTTACTTG_LTGcore_CT_RTGcore_TT] (site AGTCTTACTTG) (LTG core: CT, RTG core: TT)” the “recombinant barcode read abundance (log10)” value was 0.0465.
In the case of “AGTCTTACTTGGGTTCTAACCTGTTGCCACG [AGTCTTACTTG_LTGcore_CT_RTGcore_CG] (site AGTCTTACTTG) (LTG core: CT, RTG core: CG)”, the “recombinant barcode read abundance (log10)” value was 0.0125.
In the case of “AGTCTTACTTGGGTTCTAACCTGTTGCCAGC [AGTCTTACTTG_LTGcore_CT_RTGcore_GC] (site AGTCTTACTTG) (LTG core: CT, RTG core: GC)”, the “recombinant barcode read abundance (log10)” value was 0.13.
For “AGTCTTACTTGGGTTCTAACCTGTTGCCAGG [AGTCTTACTTG_LTGcore_CT_RTGcore_CC] (site AGTCTTACTTG) (LTG core: CT, RTG core: CC)”, the “recombinant barcode read abundance (log10)” value was 0.196.
For “AGTCTTATCTGGGTTCTAACCTGTTGCCAGA [AGTCTTACTTG_LTGcore_TC_RTGcore_TC] (site AGTCTTACTTG) (LTG core: TC, RTG core: TC)”, the “recombinant barcode read abundance (log10)” value was 0.0509.
With “ATGCTTTACTGGGTTCTAACCTGTTGCCTAG [ATGCTTTCTAG_LTGcore_AC_RTGcore_CT] (site ATGCTTTCTAG) (LTG core: AC, RTG core: CT)” the “recombinant barcode read abundance (log10)” value was 0.0722.
For “ATGCTTTCATGGGTTCTAACCTGTTGCCTTG [ATGCTTTCTAG_LTGcore_CA_RTGcore_CA] (site ATGCTTTCTAG) (LTG core: CA, RTG core: CA)”, the “recombinant barcode read abundance (log10)” value was 0.1.
With “ATGCTTTCGTGGGTTCTAACCTGTTGCCTCG [ATGCTTTCTAG_LTGcore_CG_RTGcore_CG] (site ATGCTTTCTAG) (LTG core: CG, RTG core: CG)” the “recombinant barcode read abundance (log10)” value was 0.295.
For “ATGCTTTCTTGGGTTCTAACCTGTTGCCTAT [ATGCTTTCTAG_LTGcore_CT_RTGcore_AT] (site ATGCTTTCTAG) (LTG core: CT, RTG core: AT)”, the “recombinant barcode read abundance (log10)” value was 0.128.
In the case of “ATGCTTTCTTGGGTTCTAACCTGTTGCCTGC [ATGCTTTCTAG_LTGcore_CT_RTGcore_GC] (site ATGCTTTCTAG) (LTG core: CT, RTG core: GC)”, the “recombinant barcode read abundance (log10)” value was 0.295.
For “ATGCTTTCTTGGGTTCTAACCTGTTGCCTGT [ATGCTTTCTAG_LTGcore_CT_RTGcore_AC] (site ATGCTTTCTAG) (LTG core: CT, RTG core: AC)”, the “recombinant barcode read abundance (log10)” value was 0.101.
